Laboratory results published in US20200392150A1, “Diaryl-B-Lactam Compound and Preparation Method and Pharmaceutical Use Thereof” (Fudan University, priority 2016, published 2020).
Read-outs that look alike come from different tables or passages of the source. Each block holds one compound with its values, some of them ahead of it.

Columns and labels:
Test in all cases: In vitro cell growth inhibition assay (MTT)
Format in all cases: cell-based, human
[1] = test system: A2780; conditions: read-out: IC50 A2780
Protocol: (§1) 5000 tumor cells per well were seeded into 96-well plate and allowed to adhere overnight. Cells were treated with various concentrations of tested compounds or DMSO (0.2%, as negative control) for 48 h. Then, the medium along with tested compounds or DMSO was discarded and […] per well MTT containing medium (0.5 mg/mL) was added. After incubation at 37° C. for 4 h, the MTT-containing medium was replaced by DMSO (150 μL per well) to dissolve the formazan crystals. Absorbance of the resulting solution was measured by microplate reader (Biotech ELx800) at 540 nm wavelength. Growth inhibition rates were calculated with the absorbance. Half maximal inhibitory concentration (IC50) of each compound was calculated using GraphPad Prism, version 6.0.

[2] = test system: Hela; conditions: 48 h, read-out: IC50 Hela
Protocol: as §1

[3] = test system: MDA-MB-231; conditions: read-out: IC50 MDA-MB-231
Protocol: as §1

[4] = test system: SKOV3; conditions: read-out: IC50 SKOV3
Protocol: as §1

[5] = A2780 human ovarian cancer cell line, 48 h, MTT
[6] = Hela human cervical cancer cell line, MTT
[7] = MDA-MB-231 human breast cancer cell line, 48 h, MTT
[8] = SK-OV-3, SKOV-3 human ovarian cancer cell line, 48 h, MTT

SMILES: C=C1C(=O)N(c2cc(OC)c(OC)c(OC)c2)[C@H]1c1ccc(OC)c(OCC(=O)OCC)c1 [Compound 12, (5)-ethyl 2-(2-methoxy-5-(3-methylene-4-oxo-1-(3,4,5-trimethoxyphenyl)azetidin-2-yl)phenoxy)acetate]
- IC50 [1, 5]: > 20000 nM
- IC50 [2, 6]: > 20000 nM
- IC50 [3, 7]: > 20000 nM
- IC50 [4, 8]: > 20000 nM

SMILES: C=C1C(=O)N(c2cc(OC)c(OC)c(OC)c2)[C@H]1c1ccc(OC)c(OCC(=O)OC(C)(C)C)c1 [Compound 13, (S)-tert-butyl 2-(2-methoxy-5-(3-methylene-4-oxo-1-(3,4,5-trimethoxyphenyl)azetidin-2-yl)phenoxy)acetate]
- IC50 [1, 5]: > 10000 nM
- IC50 [2, 6]: > 10000 nM
- IC50 [3, 7]: > 10000 nM
- IC50 [4, 8]: > 10000 nM

SMILES: C=C1C(=O)N(c2cc(OC)c(OC)c(OC)c2)[C@H]1c1ccc(OC)c(OCCN(C)C)c1 [Compound 14, (S)-4-(3-(2-(dimethylamino)ethoxy)-4-methoxyphenyl)-3-methylene-1-(3,4,5-trimethoxyphenyl)azetidin-2-one]
- IC50 ([1]; Homo sapiens, A2780, 48 h): > 10000 nM
- IC50 ([2]; Homo sapiens, HeLa): > 10000 nM
- IC50 ([3]; Homo sapiens, MDA-MB-231, 48 h): > 10000 nM
- IC50 ([4]; Homo sapiens, SK-OV-3, 48 h): > 10000 nM

SMILES: C=C1C(=O)N(c2cc(OC)c(OC)c(OC)c2)[C@H]1c1ccc(OC)c(OCC(N)=O)c1 [Compound 16, (S)-2-(2-methoxy-5-(3-methylene-4-oxo-1-(3,4,5-trimethoxyphenyl)azetidin-2-yl)phenoxy)acetamide]
- IC50 [1, 5]: 316 nM
- IC50 [2, 6]: 818 nM
- IC50 [3, 7]: 503 nM
- IC50 [4, 8]: 698 nM

SMILES: C=C1C(=O)N(c2cc(OC)c(OC)c(OC)c2)[C@H]1c1ccc(OC)c(OCCCNC(=O)OCc2ccccc2)c1 [Compound 17, (S)-benzyl (3-(2-methoxy-5-(3-methylene-4-oxo-1-(3,4,5-trimethoxyphenyl)azetidin-2-yl)phenoxy)propyl)carbamate]
- IC50 [1, 5]: > 10000 nM
- IC50 [2, 6]: > 10000 nM
- IC50 [3, 7]: > 10000 nM
- IC50 [4, 8]: > 10000 nM

SMILES: C=C1C(=O)N(c2cc(OC)c(OC)c(OC)c2)[C@H]1c1ccc(OC)c(OC(=O)c2ccccc2OC)c1 [Compound 21, (S)-2-methoxy-5-(3-methylene-4-oxo-1-(3,4,5-trimethoxyphenyl)azetidin-2-yl)phenyl 2-methoxybenzoate]
- IC50 [1, 5]: 201 nM
- IC50 [2, 6]: 106 nM
- IC50 [3, 7]: 218 nM
- IC50 [4, 8]: 155 nM

SMILES: C=C1C(=O)N(c2cc(OC)c(OC)c(OC)c2)[C@H]1c1ccc(OC)c(OS(=O)(=O)c2ccc(C)cc2)c1 [Compound 27, (S)-2-methoxy-5-(3-methylene-4-oxo-1-(3,4,5-trimethoxyphenyl)azetidin-2-yl)phenyl 4-methylbenzenesulfonate]
- IC50 [1, 5]: 6670 nM
- IC50 [2, 6]: 17800 nM
- IC50 [3, 7]: 12800 nM
- IC50 [4, 8]: 12100 nM

SMILES: C=C1C(=O)N(c2cc(OC)c(OC)c(OC)c2)[C@H]1c1ccc(OC)c(OS(=O)(=O)c2ccc(NC(C)=O)cc2)c1 [Compound 30, (S)-2-methoxy-5-(3-methylene-4-oxo-1-(3,4,5-trimethoxyphenyl)azetidin-2-yl)phenyl 4-acetamidobenzenesulfonate]
- IC50 [1, 5]: 12200 nM
- IC50 [2, 6]: 15900 nM
- IC50 [3, 7]: 15800 nM
- IC50 [4, 8]: 12000 nM

SMILES: C=C1C(=O)N(c2cc(OC)c(OC)c(OC)c2)[C@H]1c1ccc(OC)c(OS(=O)(=O)Cc2ccccc2)c1 [Compound 32, (S)-2-methoxy-5-(3-methylene-4-oxo-1-(3,4,5-trimethoxyphenyl)azetidin-2-yl)phenyl phenylmethanesulfonate]
- IC50 [1, 5]: 7340 nM
- IC50 [2, 6]: > 20000 nM
- IC50 [3, 7]: > 20000 nM
- IC50 [4, 8]: 8660 nM

SMILES: C=C1C(=O)N(c2cc(OC)c(OC)c(OC)c2)[C@H]1c1ccc(OC)c(OS(=O)(=O)c2ccc(OC)c(OC)c2)c1 [Compound 33, (S)-2-methoxy-5-(3-methylene-4-oxo-1-(3,4,5-trimethoxyphenyl)azetidin-2-yl)phenyl 3,4-dimethoxybenzenesulfonate]
- IC50 [1, 5]: 12300 nM
- IC50 [2, 6]: 12300 nM
- IC50 [3, 7]: 13400 nM
- IC50 [4, 8]: 15200 nM

SMILES: C=C1C(=O)N(c2cc(OC)c(OC)c(OC)c2)[C@H]1c1ccc(OC)c(OC(=O)[C@H](C)NC(=O)OC(C)(C)C)c1 [Compound 35, (S)-2-methoxy-5-((S)-3-methylene-4-oxo-1-(3,4,5-trimethoxyphenyl)azetidin-2-yl)phenyl 2-((tert-butoxycarbonyl)amino)propanoate]
- IC50 [1, 5]: 496 nM
- IC50 [2, 6]: 106 nM
- IC50 [3, 7]: 496 nM
- IC50 [4, 8]: 252 nM

SMILES: C=C1C(=O)N(c2cc(OC)c(OC)c(OC)c2)[C@H]1c1ccc(OC)c(OC(=O)[C@@H](NC(=O)OC(C)(C)C)C(C)C)c1 [Compound 36, (S)-2-methoxy-5-((S)-3-methylene-4-oxo-1-(3,4,5-trimethoxyphenyl)azetidin-2-yl)phenyl 2-((tert-butoxycarbonyl)amino)-3-methylbutanoate]
- IC50 [1, 5]: 505 nM
- IC50 [2, 6]: 501 nM
- IC50 [3, 7]: 506 nM
- IC50 [4, 8]: 496 nM

SMILES: C=C1C(=O)N(c2cc(OC)c(OC)c(OC)c2)[C@H]1c1ccc(OC)c(OP(=O)(OCc2ccccc2)OCc2ccccc2)c1 [Compound 37, (S)-dibenzyl (2-methoxy-5-(3-methylene-4-oxo-1-(3,4,5-trimethoxyphenyl)azetidin-2-yl)phenyl) phosphate]
- IC50 [1, 5]: > 20000 nM
- IC50 [2, 6]: > 20000 nM
- IC50 [3, 7]: > 20000 nM
- IC50 [4, 8]: > 20000 nM

- IC50 [1, 5]: 121 nM
- IC50 [2, 6]: 131 nM
- IC50 [3, 7]: 111 nM
- IC50 [4, 8]: 134 nM
SMILES: C=C1C(=O)N(c2cc(OC)c(OC)c(OC)c2)[C@H]1c1ccc(OC)c(F)c1 [Compound 38, (S)-4-(3-fluoro-4-methoxyphenyl)-3-methylene-1-(3,4,5-trimethoxyphenyl)azetidin-2-one]

SMILES: C=C1C(=O)N(c2cc(OC)c(OC)c(OC)c2)[C@H]1c1ccc(OC)c(N)c1 [Compound 41, (S)-4-(3-amino-4-methoxyphenyl)-3-methylene-1-(3,4,5-trimethoxyphenyl)azetidin-2-one]
- IC50 [1, 5]: 31 nM
- IC50 [2, 6]: 32 nM
- IC50 [3, 7]: 40 nM
- IC50 [4, 8]: 36 nM

- IC50 [1, 5]: 112 nM
- IC50 [2, 6]: 295 nM
- IC50 [3, 7]: 125 nM
- IC50 [4, 8]: 175 nM
SMILES: C=C1C(=O)N(c2cc(OC)cc(OC)c2)[C@H]1c1ccc(OC)c(O)c1 [Compound 49, (S)-1-(3,5-dimethoxyphenyl)-4-(3-hydroxy-4-methoxyphenyl)-3-methyleneazetidin-2-one]

- IC50 [1, 5]: 234 nM
- IC50 [2, 6]: 894 nM
- IC50 [3, 7]: 291 nM
- IC50 [4, 8]: 513 nM
SMILES: C=C1C(=O)N(c2ccc(OC)cc2OC)[C@H]1c1ccc(OC)c(O)c1 [Compound 50, (S)-1-(2,4-dimethoxyphenyl)-4-(3-hydroxy-4-methoxyphenyl)-3-methyleneazetidin-2-one]

SMILES: COc1ccc([C@H]2/C(=C\C[Si](C)(C)C)C(=O)N2c2cc(OC)c(OC)c(OC)c2)cc1O [Compound 54, (S,E)-4-(3-hydroxy-4-methoxyphenyl)-1-(3,4,5-trimethoxyphenyl)-3-(2-(trimethylsilyl)ethylidene)azetidin-2-one]
- IC50 [1, 5]: > 10000 nM
- IC50 [2, 6]: > 10000 nM
- IC50 [3, 7]: > 10000 nM
- IC50 [4, 8]: > 10000 nM

SMILES: COc1ccc([C@H]2/C(=C/c3ccccc3)C(=O)N2c2cc(OC)c(OC)c(OC)c2)cc1O [Compound 57, (S,Z)-3-benzylidene-4-(3-hydroxy-4-methoxyphenyl)-1-(3,4,5-trimethoxyphenyl)azetidin-2-one]
- IC50 [1, 5]: 2540 nM
- IC50 [2, 6]: 4730 nM
- IC50 [3, 7]: 3160 nM
- IC50 [4, 8]: 2990 nM

SMILES: COc1ccc([C@H]2/C(=C/c3ccc(C(C)(C)C)cc3)C(=O)N2c2cc(OC)c(OC)c(OC)c2)cc1O [Compound 58, (S,Z)-3-(4-(tert-butyl)benzylidene)-4-(3-hydroxy-4-methoxyphenyl)-1-(3,4,5-trimethoxyphenyl)azetidin-2-one]
- IC50 [1, 5]: > 20000 nM
- IC50 [2, 6]: > 20000 nM
- IC50 [3, 7]: > 20000 nM
- IC50 [4, 8]: > 20000 nM

SMILES: COc1ccc([C@H]2[C@@H](CC[Si](C)(C)C)C(=O)N2c2cc(OC)c(OC)c(OC)c2)cc1O [Compound 59, (3R,4R)-4-(3-hydroxy-4-methoxyphenyl)-1-(3,4,5-trimethoxyphenyl)-3-(2-(trimethylsilyl)ethyl)azetidin-2-one]
- IC50 [1, 5]: 7540 nM
- IC50 [2, 6]: 9140 nM
- IC50 [3, 7]: 6440 nM
- IC50 [4, 8]: 5630 nM

- IC50 [1, 5]: 15 nM
- IC50 [2, 6]: 33 nM
- IC50 [3, 7]: 28 nM
- IC50 [4, 8]: 83 nM
SMILES: COc1ccc([C@H]2[C@H](n3cc(CO)nn3)C(=O)N2c2cc(OC)c(OC)c(OC)c2)cc1O [Compound 61, (3S,4S)-4-(3-hydroxy-4-methoxyphenyl)-3-(4-(hydroxymethyl)-1H-1,2,3-triazol-1-yl)-1-(3,4,5-trimethoxyphenyl)azetidin-2-one]

SMILES: COc1ccc([C@H]2[C@@H](CN(C)C)C(=O)N2c2cc(OC)c(OC)c(OC)c2)cc1O [Compound 62, (3R,4R)-3-((dimethylamino)methyl)-4-(3-hydroxy-4-methoxyphenyl)-1-(3,4,5-trimethoxyphenyl)azetidin-2-one]
- IC50 [1, 5]: 7720 nM
- IC50 [2, 6]: > 20000 nM
- IC50 [3, 7]: > 20000 nM
- IC50 [4, 8]: > 20000 nM

SMILES: COc1ccc([C@H]2[C@@H](CNCc3ccccc3)C(=O)N2c2cc(OC)c(OC)c(OC)c2)cc1O [Compound 63, (3R,4R)-3-((benzylamino)methyl)-4-(3-hydroxy-4-methoxyphenyl)-1-(3,4,5-trimethoxyphenyl)azetidin-2-one]
- IC50 [1, 5]: 1020 nM
- IC50 [2, 6]: 2270 nM
- IC50 [3, 7]: 1790 nM
- IC50 [4, 8]: 1670 nM
